Measured values: patent US20200331882A1, “COMPOUND FOR SIMULTANEOUSLY INHIBITING LSD1 AND HDAC TARGETS AND APPLICATION THEREOF” (PEKING UNIVERSITY SHENZHEN GRADUATE SCHOOL, priority 2018, published 2020)
pIC50: −log10 of the molar value.

How the values were obtained:
HDAC1 = biological target: T1, HDAC1 (Homo sapiens, UniProt Q13547); test: In vitro HDAC1 inhibitory activity, FLUOR DE LYS HDAC1 fluorometric assay kit; assay type: biochemical; conditions: HDAC1 enzyme activity in vitro
T1 construct: purchased Enzo Biochem Inc
Excerpt: The principle was shown in the following reaction formula: HDAC1 catalyzes the deacetylation of a substrate FLUOR DE LYS® Substrate (containing an acetylated side chain), the product can react with FLUOR DE LYS® Developer II to generate fluorescence (shown in the following reaction process), and the inhibitory activity of a molecule to be detected on HDAC1 can be indirectly obtained by detecting the fluorescence intensity of the product. In this experiment, 360 nm was selected as the excitation wavelength and 460 nm as the emission wavelength for detection. FLUOR DE LYS® HDAC1 fluorometric drug discovery assay kit required for experiments was purchased from Enzo Biochem Inc.
During the test, the sample was prepared according to the specific experimental conditions of blocking the HDAC1 enzyme activity of the compound of the present invention in vitro in accordance with Table 2 below.

[1] = system: mouse colon cancer cell CT26.WT; test: MTT tumor cell proliferation; assay type: cell-based; conditions: Mus musculus, 72 h
Excerpt: (§1) MTT colorimetric method was used to detect the inhibitory activity of a series of compounds (i.e. ZZY-001 to ZZY-016, a total of 16 kinds) of the embodiment of the present invention on the proliferation of tumor cells in vitro. The full name of MTT is 3-(4,5-dimethyl-2-thiazolyl)-2,5-diphenyl-2-H-tetrazolium romide, which is a yellow dye also known as thiazolyl blue. […] DMSO can dissolve Formazan deposited in cells and the absorbance value can be measured with a enzyme marker at a wavelength of 490 nm. In a certain range of cell number, the production of Formazan is proportional to the number of cells, so the number of living cells can be inferred according to the measured OD value.
(§2) The cell suspension was inoculated on a 96-well plate at 100 μl/well and cultured in a constant temperature CO2 incubator for 24 h. Then the tested drugs were added, 100 μl/well, and cultured for 72 h. MTT was added to a 96-well plate, 20 μl/well, and reacted for 4 h in the incubator. Absorb the supernatant, add DMSO, 150 μl/well and shake for 10 min on the plate shaker. The optical density (OD value) of each well was measured by enzyme marker at the wavelength of 490 nm.

[2] = system: mouse breast cancer cell 4T1; test: MTT tumor cell proliferation; assay type: cell-based; conditions: Mus musculus, 72 h
Excerpt: as §1, §2

[3] = system: human breast cancer cell line BT-474; test: MTT tumor cell proliferation; assay type: cell-based; conditions: Homo sapiens, 72 h
Excerpt: as §1, §2

[4] = system: human colon adenocarcinoma cell HCT116; test: MTT tumor cell proliferation; assay type: cell-based; conditions: Homo sapiens, HCT-116, 72 h
Excerpt: as §1, §2

[5] = system: human breast cancer cell line MDA-MB-231; test: MTT tumor cell proliferation; assay type: cell-based; conditions: Homo sapiens, 72 h
Excerpt: as §1
In the experiments of this embodiment, the selected cell lines are human breast cancer cell line MDA-MB-231 and BT-474, human colon adenocarcinoma cell HCT116, mouse colon cancer cell CT26.WT, mouse breast cancer cell 4T1. During the test, the cells in logarithmic phase and in good condition were digested with 0.25% trypsin digestion solution to make the adherent cells fall off, and the cell suspension (suspension cells without trypsin digestion) was made by counting 2-4×10^4 cells/ml. The cell suspension was inoculated on a 96-well plate at 100 μl/well and cultured in a constant temperature CO2 incubator for 24 h. Then the tested drugs were added, 100 μl/well, and cultured for 72 h. MTT was added to a 96-well plate, 20 μl/well, and reacted for 4 h in the incubator. Absorb the supernatant, add DMSO, 150 μl/well and shake for 10 min on the plate shaker. The optical density (OD value) of each well was measured by enzyme marker at the wavelength of 490 nm. […]

T1 sequence (Q13547 whole entry): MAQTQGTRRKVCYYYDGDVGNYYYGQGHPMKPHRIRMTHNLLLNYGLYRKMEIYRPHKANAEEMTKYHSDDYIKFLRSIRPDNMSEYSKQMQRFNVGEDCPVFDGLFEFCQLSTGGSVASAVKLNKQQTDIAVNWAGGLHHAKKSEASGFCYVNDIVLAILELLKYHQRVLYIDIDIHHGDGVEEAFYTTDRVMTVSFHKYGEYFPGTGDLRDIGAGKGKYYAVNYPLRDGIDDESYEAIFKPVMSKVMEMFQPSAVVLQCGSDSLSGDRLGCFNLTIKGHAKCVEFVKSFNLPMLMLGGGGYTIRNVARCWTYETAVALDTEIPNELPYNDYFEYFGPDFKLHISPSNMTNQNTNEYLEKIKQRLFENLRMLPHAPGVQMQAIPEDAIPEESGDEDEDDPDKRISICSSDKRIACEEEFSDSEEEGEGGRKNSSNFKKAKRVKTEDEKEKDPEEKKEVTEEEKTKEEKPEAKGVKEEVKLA

pIC50 (HDAC1): 6.74
pIC50 [1]: 5.06
pIC50 [2]: 5.62
pIC50 [3]: 5.73
pIC50 [4]: 6.58
pIC50 [5]: 6.08
SMILES: Cc1ccc(C(=O)Nc2cc(N3CCNCC3)ccc2-c2ccc(/C=C/C(=O)NO)cc2C)cc1.Cl [ZZY-003]
